Measurements taken from ChEMBL document CHEMBL5518220, “The Discovery of 7-Isopropoxy-2-(1-methyl-2-oxabicyclo[2.1.1]hexan-4-yl)-N-(6-methylpyrazolo[1,5-a]pyrimidin-3-yl)imidazo[1,2-a]pyrimidine-6-carboxamide (BIO-7488), a Potent, Selective, and CNS-Penetrant IRAK4 Inhibitor for the Treatment of Ischemic Stroke” (J Med Chem, 2024).
Values belong to the compound of their own block, whether it stands above or below them.

How the values were obtained:
[1] = system: MDR1 (P-gp); experiment: Efflux ratio of apparent permeability across basolateral to apical side over apical to basolateral side in MDCK-MDR1 cells at 1 uM incubated for 120 mins by LC-MS/MS analysis; type: ADME, cell-based, Canis lupus familiaris; settings: dog
[2] = Metabolic stability in human liver microsomes assessed as intrinsic clearance; type: ADME, Microsome; settings: read-out: CLH
[3] = Drug metabolism in male Sprague-Dawley rat liver microsomes assessed as oxidative metabolism at methyl-THF moiety at 10 uM incubated for 60 mins by LC-MS/MS analysis; type: ADME, Microsome; settings: 1 h
[4] = Unbound brain-to-plasma concentration ratio in iv dosed rat measured at 4 to 24 hrs by LC-MS/MS analysis; type: ADME, organism-based; settings: brain and plasma, time 4-24 hrs, read-out: K(p,uu,brain)
[5] = molecular target: T1, Interleukin-1 receptor-associated kinase 4 (Homo sapiens, UniProt Q9NWZ3)
T1 sequence (Q9NWZ3 whole entry): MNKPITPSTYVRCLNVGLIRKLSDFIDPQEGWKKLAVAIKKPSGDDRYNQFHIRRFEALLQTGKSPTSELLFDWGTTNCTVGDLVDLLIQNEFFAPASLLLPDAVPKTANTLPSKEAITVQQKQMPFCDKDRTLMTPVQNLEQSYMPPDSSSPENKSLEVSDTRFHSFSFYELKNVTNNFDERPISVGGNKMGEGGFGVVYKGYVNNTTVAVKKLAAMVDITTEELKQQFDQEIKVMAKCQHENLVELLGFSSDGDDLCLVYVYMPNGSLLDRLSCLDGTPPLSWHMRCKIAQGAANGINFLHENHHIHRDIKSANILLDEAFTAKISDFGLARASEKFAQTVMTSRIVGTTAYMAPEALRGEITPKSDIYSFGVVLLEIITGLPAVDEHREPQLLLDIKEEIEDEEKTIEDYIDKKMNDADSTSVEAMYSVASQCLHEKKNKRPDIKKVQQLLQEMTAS

[6] = Metabolic stability in rat liver microsomes assessed as intrinsic clearance; type: ADME, Microsome; settings: read-out: CLH
[7] = Drug metabolism in human liver microsomes assessed as oxidative metabolism at methyl-THF moiety at 10 uM incubated for 60 mins by LC-MS/MS analysis; type: ADME, Microsome; settings: 1 h
[8] = Free drug level in male C57BL/6 mouse plasma at 10 mg/kg, po qd measured on 3 to 7 days; type: ADME, organism-based; settings: in vivo, time 3-7 day
[9] = system: Mus musculus; experiment: Inhibition of LPS-induced IL-1beta production in po dosed female C57BL/6 mouse assessed as reduction in IL-1beta level in plasma administered via oral gavage for 60 mins followed by LPS stimulation at 0.5 mg/kg, ip measured after 90 mins by ELISA; type: functional, organism-based
[10] = Oral bioavailability in rat at 1 mg/kg by LC-MS/MS analysis; type: ADME, organism-based; settings: in vivo
[11] = Unbound clearance in cynomolgus monkey at 1 mg/kg, iv by LC-MS/MS analysis; type: ADME, organism-based, Macaca fascicularis; settings: in vivo
[12] = Clearance in rat at 1 mg/kg, iv by LC-MS/MS analysis; type: ADME, organism-based; settings: in vivo
[13] = Unbound clearance in mouse at 1 mg/kg, iv by LC-MS/MS analysis; type: ADME, organism-based; settings: in vivo
[14] = molecular target: T2, Dual specificity mitogen-activated protein kinase kinase 5 (Homo sapiens) (UniProt Q13163); experiment: Binding affinity to MEK5 (unknown origin) at 100 to 1000 nM relative to control; settings: dose 100-1000 nM
T2 sequence (whole entry): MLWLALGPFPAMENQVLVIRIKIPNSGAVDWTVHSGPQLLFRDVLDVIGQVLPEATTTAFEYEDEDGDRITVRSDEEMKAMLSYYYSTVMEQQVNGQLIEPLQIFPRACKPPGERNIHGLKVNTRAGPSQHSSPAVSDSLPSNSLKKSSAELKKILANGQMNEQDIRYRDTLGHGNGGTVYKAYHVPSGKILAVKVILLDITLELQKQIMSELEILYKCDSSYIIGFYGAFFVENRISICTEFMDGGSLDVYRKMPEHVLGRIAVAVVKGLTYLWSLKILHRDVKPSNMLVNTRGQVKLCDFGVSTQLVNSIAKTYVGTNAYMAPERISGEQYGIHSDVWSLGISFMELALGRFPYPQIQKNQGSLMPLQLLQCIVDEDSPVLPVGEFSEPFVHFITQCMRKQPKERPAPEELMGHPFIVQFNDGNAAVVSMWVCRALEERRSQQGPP

[15] = Volume of distribution at steady state in dog at 1 mg/kg, iv by LC-MS/MS analysis; type: ADME, organism-based, Canis lupus familiaris; settings: in vivo, read-out: Vdss
[16] = Clearance in cynomolgus monkey at 1 mg/kg, iv by LC-MS/MS analysis; type: ADME, organism-based, Macaca fascicularis; settings: in vivo
[17] = AUCinfinity in cynomolgus monkey at 1 mg/kg, iv by LC-MS/MS analysis; type: ADME, organism-based, Macaca fascicularis; settings: in vivo
[18] = Oral bioavailability in cynomolgus monkey at 1 mg/kg by LC-MS/MS analysis; type: ADME, organism-based, Macaca fascicularis; settings: in vivo
[19] = Unbound clearance in dog at 1 mg/kg, iv by LC-MS/MS analysis; type: ADME, organism-based, Canis lupus familiaris; settings: in vivo
[20] = AUCinfinity in rat at 1 mg/kg, iv by LC-MS/MS analysis; type: ADME, organism-based; settings: in vivo
[21] = system: Mus musculus; experiment: Inhibition of LPS-induced IL-6 production in po dosed female C57BL/6 mouse assessed as reduction in IL-6 level in plasma administered via oral gavage for 60 mins followed by LPS stimulation at 0.5 mg/kg, ip measured after 90 mins by ELISA; type: functional, organism-based
[22] = Volume of distribution at steady state in cynomolgus monkey at 1 mg/kg, iv by LC-MS/MS analysis; type: ADME, organism-based, Macaca fascicularis; settings: in vivo, read-out: Vdss
[23] = Clearance in mouse at 1 mg/kg, iv by LC-MS/MS analysis; type: ADME, organism-based; settings: in vivo
[24] = Volume of distribution at steady state in mouse at 1 mg/kg, iv by LC-MS/MS analysis; type: ADME, organism-based; settings: in vivo, read-out: Vdss
[25] = Half life in dog at 1 mg/kg, iv by LC-MS/MS analysis; type: ADME, organism-based, Canis lupus familiaris; settings: in vivo
[26] = Oral bioavailability in mouse at 1 mg/kg by LC-MS/MS analysis; type: ADME, organism-based; settings: in vivo
[27] = Tmax in mouse at 1 mg/kg, po by LC-MS/MS analysis; type: ADME, organism-based; settings: in vivo
[28] = Metabolic stability in human hepatocytes assessed as intrinsic clearance; type: ADME, cell-based, Hepatocyte; settings: read-out: CLH
[29] = Half life in rat at 1 mg/kg, iv by LC-MS/MS analysis; type: ADME, organism-based; settings: in vivo
[30] = AUCinfinity in dog at 1 mg/kg, iv by LC-MS/MS analysis; type: ADME, organism-based, Canis lupus familiaris; settings: in vivo
[31] = Tmax in dog at 1 mg/kg, po by LC-MS/MS analysis; type: ADME, organism-based, Canis lupus familiaris; settings: in vivo
[32] = Lipophilicity, logD of compound in n-octanol and aqueous buffer at pH 7.4 by RP-HPLC method; type: physicochemical
[33] = Oral bioavailability in dog at 1 mg/kg by LC-MS/MS analysis; type: ADME, organism-based, Canis lupus familiaris; settings: in vivo
[34] = AUCinfinity in mouse at 1 mg/kg, iv by LC-MS/MS analysis; type: ADME, organism-based; settings: in vivo
[35] = system: Mus musculus; experiment: Inhibition of LPS-induced TNF-alpha production in po dosed female C57BL/6 mouse assessed as reduction in TNF-alpha level in plasma administered via oral gavage for 60 mins followed by LPS stimulation at 0.5 mg/kg, ip measured after 90 mins by ELISA; type: functional, organism-based
[36] = Tmax in rat at 1 mg/kg, po by LC-MS/MS analysis; type: ADME, organism-based; settings: in vivo
[37] = Half life in cynomolgus monkey at 1 mg/kg, iv by LC-MS/MS analysis; type: ADME, organism-based, Macaca fascicularis; settings: in vivo
[38] = Clearance in dog at 1 mg/kg, iv by LC-MS/MS analysis; type: ADME, organism-based, Canis lupus familiaris; settings: in vivo
[39] = Half life in mouse at 1 mg/kg, iv by LC-MS/MS analysis; type: ADME, organism-based; settings: in vivo
[40] = Inhibition of […] induced IL-1beta production in human whole blood preincubated for 1 hr followed by R848 stimulation and measured after 4 hrs by MSD assay; type: functional, tissue-based
[41] = Volume of distribution at steady state in rat at 1 mg/kg, iv by LC-MS/MS analysis; type: ADME, organism-based; settings: in vivo, read-out: Vdss
[42] = Tmax in cynomolgus monkey at 1 mg/kg, po by LC-MS/MS analysis; type: ADME, organism-based, Macaca fascicularis; settings: in vivo
[43] = Unbound clearance in rat at 1 mg/kg, iv by LC-MS/MS analysis; type: ADME, organism-based; settings: in vivo

efflux ratio at 2 h, 1 µM [1]: 1.5
CLint scaled [2]: 62 mL/min/kg
Drug metabolism [3]: Metabolite_Detected
Kp uu [4]: 0.9
IC50 [5]: 0.9 nM
CLint scaled [6]: 171 mL/min/kg
Drug metabolism [7]: Metabolite_Detected
SMILES: CCOc1cc2nc(C[C@@H]3CCOC3)cn2cc1NC(=O)c1cccc(C(F)F)n1

SMILES: Cc1cnc2c(NC(=O)c3cn4cc(C56COC(C)(C5)C6)nc4nc3OC(C)C)cnn2c1
Cp(f) [8]: 10 nM
inhibition [9]: Dose-Dependent Effect
bioavailability [10]: 91%
CL free [11]: 14 mL/min/kg
clearance [12]: 2.1 mL/min/kg
CL free [13]: 19 mL/min/kg
Activity [14]: > 80%
Vd [15]: 2.8 L/kg
clearance [16]: 2.7 mL/min/kg
AUC(0-inf) [17]: 6440 ng·h/mL
bioavailability [18]: 95%
CL free [19]: 5.3 mL/min/kg
CLint scaled [2]: < 5 mL/min/kg
AUC(0-inf) [20]: 6530 ng·h/mL
inhibition [21]: Dose-Dependent Effect
Vd [22]: 1.7 L/kg
clearance [23]: 1.8 mL/min/kg
Vd [24]: 0.75 L/kg
half-life [25]: 10 h
bioavailability [26]: 98%
Tmax [27]: 1 h
CLint scaled [28]: 2.5 mL/min/kg
half-life [29]: 12 h
AUC(0-inf) [30]: 3190 ng·h/mL
Tmax [31]: 2.6 h
logD [32]: 2.9
bioavailability [33]: 96%
AUC(0-inf) [34]: 9460 ng·h/mL
inhibition [35]: Dose-Dependent Effect
Tmax [36]: 4.7 h
half-life [37]: 8.3 h
clearance [38]: 3.5 mL/min/kg
half-life [39]: 5 h
IC50 ([40]; Homo sapiens, Blood): 200 nM
fIC50 ([40]; time 5 hrs): 13 nM
Vd [41]: 2.2 L/kg
Tmax [42]: 2 h
CL free [43]: 30 mL/min/kg
